Data: article PMC4892435, “Structure of astrotactin-2: a conserved vertebrate-specific and perforin-like membrane protein involved in neuronal development” (Open Biology, 2016)

Biological target: T1, ASTN-2_701-1288 (Homo sapiens, UniProt O75129)
T1 construct: gene ASTN2; endodomain, residues 701-1288 in methods (crystal construct EGF-3 to C-terminus is printed 649-1288; borders may mix numberings); secreted from HEK293T, hexahistidine
T1 sequence (O75129 701-1288 isoform O75129-2): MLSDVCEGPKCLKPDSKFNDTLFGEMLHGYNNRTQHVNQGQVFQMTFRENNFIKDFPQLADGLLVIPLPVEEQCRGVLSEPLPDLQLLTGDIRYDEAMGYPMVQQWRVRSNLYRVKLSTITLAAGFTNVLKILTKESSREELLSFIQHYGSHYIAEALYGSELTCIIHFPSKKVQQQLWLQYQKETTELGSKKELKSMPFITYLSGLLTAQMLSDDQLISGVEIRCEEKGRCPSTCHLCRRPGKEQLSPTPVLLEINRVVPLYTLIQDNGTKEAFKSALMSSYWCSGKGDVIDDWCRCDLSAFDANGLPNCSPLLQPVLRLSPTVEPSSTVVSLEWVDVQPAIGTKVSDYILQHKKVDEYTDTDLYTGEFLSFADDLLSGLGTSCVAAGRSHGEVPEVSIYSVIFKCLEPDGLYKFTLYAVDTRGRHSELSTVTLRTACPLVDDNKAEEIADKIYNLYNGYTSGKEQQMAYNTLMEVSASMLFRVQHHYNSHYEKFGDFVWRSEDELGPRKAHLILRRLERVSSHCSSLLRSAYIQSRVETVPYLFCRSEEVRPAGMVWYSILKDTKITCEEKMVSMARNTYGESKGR
Assay: SPR, Biacore T200, immobilised biotinylated ligand
Assay type: binding
Settings: pH 7.5, 20 °C, 150 mM NaCl; labelled compound (biotin, immobilised); one Kd printed jointly for PIP3 and PIP2; construct of this run not stated

Substance	Kd [µM]
PtdIns(3,4,5)P3 (C-39B6a)	30
PtdIns(4,5)P2 (C-45B6a)	30
